The format of assay [1] is binding. As to conditions: read-out: Kd (Me4CB[8]•guest).
The test system of assay [2] is PCP-induced hyperlocomotion. The assay is described as follows: In vivo reversal of PCP-induced hyperlocomotion (open field, locomotion counts). Details: species or system mice. The settings on record: listed as PCP.

“Also recorded” adds a separate entry of the source.

Results on two compounds are retold here after patent US20210379099A1 (priority 2020, published 2021).

A word on the Kd: it is the free concentration of one partner at which half of the binding sites on the other are occupied at equilibrium, for simple one-to-one binding. Take `c1ccc(C2(N3CCCCC3)CCCCC2)cc1` [PCP 8, Phencyclidine]: in assay [1], the Kd was 2 nM. The “locomotion counts, PCP alone” value is “increased locomotion significantly; also recorded: significant increase in locomotion counts” in assay [2] (experiment 1, male Swiss Webster mice n=8, PCP 2 mg/kg, 0.2 mL infusion, vs saline, Me4CB[8] alone, premix); “significantly increased locomotion counts; also recorded: significant increase in locomotion counts” in assay [2] (experiment 2, male Swiss Webster mice n=9, PCP 1.95 mg/kg, vs saline and sequential infusions).

As for `CNC1(c2ccccc2Cl)CCCCC1=O` (stereo not shown) [Ketamine 7, Ketamine], the dissociation constant (Kd) in assay [1] is 36 nM.
